Data on eight compounds can be found in patent US20100035756A1, “TRIAZOLOPHYRIDINE DERIVATIVES AS HERBICIDES” (SYNGENTA LIMITED, priority 2006, published 2010).

The subject of this test is Monocotyledonous and dicotyledonous test plants. Briefly: Herbicidal action prior to emergence of the plants (pre-emergence action), Example B1. It is filed as in vivo. Particulars: preemergence application, 250 g/ha, evaluated after 4 weeks, 100%=total damage, 0%=no damage. The method, then: Monocotyledonous and dicotyledonous test plants are sown in seed trays in standard soil. Immediately after sowing, the test compounds are applied by spraying in the form of an aqueous suspension (prepared from a wettable powder (Example F3, b) according to WO 97/34485) or in the form of an emulsion (prepared from an emulsifiable concentrate (Example F1, c) according to WO 97/34485) in a concentration of 250 g/ha. The test plants are then grown in a greenhouse under optimum conditions. After a 4-week test period, the test is evaluated (100%=total damage to plant; 0%=no damage to plant; NC not evaluated).

Consider `O=C(C1=C(O)C2CCC(C2)C1=O)c1ccc(C(F)(F)F)n2ncnc12` (stereo not drawn) [2.1], for which the “herbicidal damage, ABUTH” value amounted to 100%; the “herbicidal damage, AMARE” value is listed as 100%; the “herbicidal damage, BRAPL” value is on record as 100%; the “herbicidal damage, DIGSA” value stood at 100%. Further, the “herbicidal damage, ECHCG” value is listed as 90%; the “herbicidal damage, SETFA” value turned out to be 90%; the “herbicidal damage, STEME” value was determined as 70%; the “herbicidal damage, VERPE” value turned out to be 40%.
With `O=C(C1=C(O)C2CCC(C2)C1=O)c1ccc(C(F)(F)F)n2nc(-c3ccc(Cl)cc3)nc12` (stereo not drawn) [2.35], the “herbicidal damage, ABUTH” value was 0%; the “herbicidal damage, AMARE” value is on record as 0%; the “herbicidal damage, BRAPL” value was found to be 50%; the “herbicidal damage, DIGSA” value was determined as 20%. In addition, the “herbicidal damage, ECHCG” value came to 0%; the “herbicidal damage, SETFA” value stood at 0%; the “herbicidal damage, STEME” value came out at 50%; the “herbicidal damage, VERPE” value amounted to 0%.
Take `O=C(C1=C(O)C2CCC(C2)C1=O)c1ccc(C(F)(F)F)n2c(-c3ccc(Cl)cc3)nnc12` (stereo not drawn) [Compound 1.35]: the “herbicidal damage, ABUTH” value is reported as 50%; the “herbicidal damage, AMARE” value is reported as 100%; the “herbicidal damage, BRAPL” value is reported as 100%; the “herbicidal damage, DIGSA” value was 100%. Also, the “herbicidal damage, ECHCG” value is listed as 0%; the “herbicidal damage, SETFA” value came out at 30%; the “herbicidal damage, STEME” value came to 70%; the “herbicidal damage, VERPE” value is recorded as 40%.
For `O=C1CCCC(O)=C1C(=O)c1ccc(C(F)(F)F)n2cnnc12` [Compound 3.1], the “herbicidal damage, ABUTH” value is reported as 100%; the “herbicidal damage, AMARE” value was determined as 100%; the “herbicidal damage, BRAPL” value is listed as 40%; the “herbicidal damage, DIGSA” value came out at 100%. The “herbicidal damage, ECHCG” value is on record as 10%; the “herbicidal damage, SETFA” value is on record as 0%; the “herbicidal damage, STEME” value was found to be 70%; the “herbicidal damage, VERPE” value worked out at 60%.
For `O=C1CCCC(O)=C1C(=O)c1ccc(C(F)(F)F)n2c(Cl)nnc12` [Compound 3.2], the “herbicidal damage, ABUTH” value is 100%; the “herbicidal damage, AMARE” value is recorded as 100%; the “herbicidal damage, BRAPL” value worked out at 0%; the “herbicidal damage, DIGSA” value is 80%. In addition, the “herbicidal damage, ECHCG” value stood at 70%; the “herbicidal damage, SETFA” value stood at 0%; the “herbicidal damage, STEME” value is recorded as 100%; the “herbicidal damage, VERPE” value is 100%.
As for `O=C1CCCC(O)=C1C(=O)c1ccc(C(F)(F)F)n2c(OC(F)F)nnc12` [Compound 3.12], the “herbicidal damage, ABUTH” value came out at 50%; the “herbicidal damage, AMARE” value amounted to 100%; the “herbicidal damage, BRAPL” value turned out to be 60%; the “herbicidal damage, DIGSA” value turned out to be 10%. Besides, the “herbicidal damage, ECHCG” value was 0%; the “herbicidal damage, SETFA” value is 0%; the “herbicidal damage, STEME” value came to 0%.
`O=C1CCCC(O)=C1C(=O)c1ccc(C(F)(F)F)n2c(-c3cccnc3)nnc12` [Compound 3.15]: the “herbicidal damage, ABUTH” value is 10%; the “herbicidal damage, AMARE” value came to 0%; the “herbicidal damage, BRAPL” value stood at 30%; the “herbicidal damage, DIGSA” value is recorded as 30%. Also, the “herbicidal damage, ECHCG” value turned out to be 30%; the “herbicidal damage, SETFA” value was determined as 30%; the “herbicidal damage, STEME” value was determined as 60%; the “herbicidal damage, VERPE” value is reported as 30%.
Take `CC1(C)C(=O)C(C(=O)c2ccc(C(F)(F)F)n3cnnc23)=C(O)C(C)(C)C1=O` [Compound 5.1]: the “herbicidal damage, ABUTH” value worked out at 100%; the “herbicidal damage, AMARE” value is on record as 100%; the “herbicidal damage, BRAPL” value is reported as 100%; the “herbicidal damage, DIGSA” value came to 100%. Also, the “herbicidal damage, ECHCG” value worked out at 90%; the “herbicidal damage, SETFA” value was 40%; the “herbicidal damage, STEME” value was 100%; the “herbicidal damage, VERPE” value came out at 80%.
